Test [1] deals with Myosin light chain kinase, smooth muscle (Homo sapiens, UniProt Q15746). The experiment in a line: Selectivity interaction (Ambit KINOMEscan and KiNATiv profiling in Jurkat cells) EUB0000090b MYLK. The class given is cell-based. The note with it: at 1 µM.
Test [2] addresses Ribosomal protein S6 kinase alpha-6 (Homo sapiens, UniProt Q9UK32). The conditions noted are these: at 10 µM.
For test [3], the target named is T1, Serine/threonine-protein kinase LATS1 (Homo sapiens) (UniProt O95835).
T1 sequence (whole entry): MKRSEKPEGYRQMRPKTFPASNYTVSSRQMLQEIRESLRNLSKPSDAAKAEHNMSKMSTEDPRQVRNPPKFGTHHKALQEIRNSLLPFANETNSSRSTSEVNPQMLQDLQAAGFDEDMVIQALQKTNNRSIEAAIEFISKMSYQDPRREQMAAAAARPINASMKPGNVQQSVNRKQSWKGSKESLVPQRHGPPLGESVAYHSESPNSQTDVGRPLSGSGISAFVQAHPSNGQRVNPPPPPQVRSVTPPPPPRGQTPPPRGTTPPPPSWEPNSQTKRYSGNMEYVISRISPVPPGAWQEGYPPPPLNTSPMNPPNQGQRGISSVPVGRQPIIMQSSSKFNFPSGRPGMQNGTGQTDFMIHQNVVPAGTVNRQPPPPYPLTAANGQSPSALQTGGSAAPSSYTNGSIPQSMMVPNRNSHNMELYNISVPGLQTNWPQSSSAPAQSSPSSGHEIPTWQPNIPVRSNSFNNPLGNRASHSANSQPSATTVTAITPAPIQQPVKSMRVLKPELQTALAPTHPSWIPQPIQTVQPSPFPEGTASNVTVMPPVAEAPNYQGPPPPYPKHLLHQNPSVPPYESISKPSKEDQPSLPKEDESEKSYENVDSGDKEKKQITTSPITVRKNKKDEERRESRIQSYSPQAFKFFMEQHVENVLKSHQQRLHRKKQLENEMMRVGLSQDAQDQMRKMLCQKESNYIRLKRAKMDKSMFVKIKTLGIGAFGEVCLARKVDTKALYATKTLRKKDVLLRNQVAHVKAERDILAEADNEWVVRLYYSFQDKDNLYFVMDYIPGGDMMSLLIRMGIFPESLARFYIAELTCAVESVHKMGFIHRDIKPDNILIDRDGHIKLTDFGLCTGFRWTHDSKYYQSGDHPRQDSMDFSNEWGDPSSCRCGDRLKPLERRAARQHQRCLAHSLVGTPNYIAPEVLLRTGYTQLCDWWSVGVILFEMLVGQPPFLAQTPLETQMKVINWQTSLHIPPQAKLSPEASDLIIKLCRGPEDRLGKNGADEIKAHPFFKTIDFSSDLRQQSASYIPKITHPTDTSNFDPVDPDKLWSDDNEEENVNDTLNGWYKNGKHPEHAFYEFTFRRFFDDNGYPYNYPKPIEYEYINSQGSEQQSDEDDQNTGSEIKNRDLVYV
The experiment in a line: Selectivity interaction (KinomeScan (DiscoverX)) EUB0000695a LATS1. The note with it: at 100 nM.

Test [4] has as its target T2, Serine/threonine-protein kinase DCLK1 (Homo sapiens) (UniProt O15075).
T2 sequence (whole entry): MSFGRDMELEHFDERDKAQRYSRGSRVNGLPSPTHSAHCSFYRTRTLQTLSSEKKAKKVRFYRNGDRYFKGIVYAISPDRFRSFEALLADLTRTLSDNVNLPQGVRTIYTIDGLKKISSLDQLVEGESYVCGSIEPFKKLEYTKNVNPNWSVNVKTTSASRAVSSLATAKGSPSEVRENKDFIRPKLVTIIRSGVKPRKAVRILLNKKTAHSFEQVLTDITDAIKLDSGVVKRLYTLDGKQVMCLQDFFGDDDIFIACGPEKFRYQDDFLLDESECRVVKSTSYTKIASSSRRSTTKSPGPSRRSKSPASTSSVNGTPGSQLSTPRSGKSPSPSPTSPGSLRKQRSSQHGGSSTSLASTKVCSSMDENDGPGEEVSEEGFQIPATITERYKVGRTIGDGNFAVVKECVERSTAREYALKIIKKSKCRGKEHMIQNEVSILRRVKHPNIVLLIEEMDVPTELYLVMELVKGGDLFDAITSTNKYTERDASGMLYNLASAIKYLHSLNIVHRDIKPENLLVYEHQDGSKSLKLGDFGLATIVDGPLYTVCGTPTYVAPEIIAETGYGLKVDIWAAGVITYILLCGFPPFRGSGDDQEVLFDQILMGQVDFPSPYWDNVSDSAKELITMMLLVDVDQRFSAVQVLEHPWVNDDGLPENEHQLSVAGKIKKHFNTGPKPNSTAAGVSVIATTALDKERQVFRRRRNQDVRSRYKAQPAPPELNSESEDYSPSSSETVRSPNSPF
The experiment in a line: Selectivity interaction (KinomeScan (DiscoverX)) EUB0000092b DCLK1. The note with it: at 10 µM.

The target of test [5] is T3, Serine/threonine-protein kinase D1 (Homo sapiens) (UniProt Q15139).
T3 sequence (whole entry): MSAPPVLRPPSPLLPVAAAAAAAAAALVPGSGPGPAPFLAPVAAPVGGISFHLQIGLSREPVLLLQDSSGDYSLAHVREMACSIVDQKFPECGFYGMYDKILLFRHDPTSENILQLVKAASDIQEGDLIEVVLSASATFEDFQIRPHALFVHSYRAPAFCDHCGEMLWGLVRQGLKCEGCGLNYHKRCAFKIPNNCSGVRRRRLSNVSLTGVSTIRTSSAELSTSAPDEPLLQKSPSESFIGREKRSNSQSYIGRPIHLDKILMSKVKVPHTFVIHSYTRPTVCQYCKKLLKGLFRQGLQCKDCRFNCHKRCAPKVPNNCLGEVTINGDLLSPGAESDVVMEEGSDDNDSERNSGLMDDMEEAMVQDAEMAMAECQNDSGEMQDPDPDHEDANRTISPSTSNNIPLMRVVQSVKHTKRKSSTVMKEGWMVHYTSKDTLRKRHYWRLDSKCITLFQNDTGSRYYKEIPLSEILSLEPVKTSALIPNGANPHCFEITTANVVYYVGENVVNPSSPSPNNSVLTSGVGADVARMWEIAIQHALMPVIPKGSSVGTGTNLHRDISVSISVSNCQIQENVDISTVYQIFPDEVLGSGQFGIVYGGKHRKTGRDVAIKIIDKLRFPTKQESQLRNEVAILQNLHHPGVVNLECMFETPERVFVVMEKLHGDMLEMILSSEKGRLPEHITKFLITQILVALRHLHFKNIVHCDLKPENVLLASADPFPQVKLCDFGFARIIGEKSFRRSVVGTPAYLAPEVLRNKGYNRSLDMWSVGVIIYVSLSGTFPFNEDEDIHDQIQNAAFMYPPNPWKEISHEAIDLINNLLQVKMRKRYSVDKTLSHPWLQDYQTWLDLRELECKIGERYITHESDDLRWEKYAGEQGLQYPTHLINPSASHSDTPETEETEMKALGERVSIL
The experiment in a line: Selectivity interaction (KinomeScan (DiscoverX)) EUB0000092b PRKD1. The note with it: at 10 µM.

Ribosomal protein S6 kinase alpha-6, sequence (Q9UK32 whole entry): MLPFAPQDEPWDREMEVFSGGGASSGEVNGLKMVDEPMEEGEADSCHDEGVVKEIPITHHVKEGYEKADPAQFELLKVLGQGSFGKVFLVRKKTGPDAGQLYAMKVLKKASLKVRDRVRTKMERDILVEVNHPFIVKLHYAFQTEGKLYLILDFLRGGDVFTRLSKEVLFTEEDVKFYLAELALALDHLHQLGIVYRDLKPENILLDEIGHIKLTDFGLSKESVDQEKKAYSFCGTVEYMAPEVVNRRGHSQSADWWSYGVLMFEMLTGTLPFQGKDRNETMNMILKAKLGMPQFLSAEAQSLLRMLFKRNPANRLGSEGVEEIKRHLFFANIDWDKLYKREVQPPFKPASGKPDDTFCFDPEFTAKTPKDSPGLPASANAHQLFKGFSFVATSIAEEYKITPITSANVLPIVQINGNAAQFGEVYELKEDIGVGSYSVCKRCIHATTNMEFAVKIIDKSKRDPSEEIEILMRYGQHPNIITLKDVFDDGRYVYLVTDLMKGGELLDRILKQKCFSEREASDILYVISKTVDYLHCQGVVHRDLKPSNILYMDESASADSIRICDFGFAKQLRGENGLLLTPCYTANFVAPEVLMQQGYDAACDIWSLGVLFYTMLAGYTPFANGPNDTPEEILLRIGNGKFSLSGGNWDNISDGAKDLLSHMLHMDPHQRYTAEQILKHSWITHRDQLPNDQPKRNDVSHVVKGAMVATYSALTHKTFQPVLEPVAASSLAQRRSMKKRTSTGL
Myosin light chain kinase, smooth muscle, sequence (Q15746 whole entry): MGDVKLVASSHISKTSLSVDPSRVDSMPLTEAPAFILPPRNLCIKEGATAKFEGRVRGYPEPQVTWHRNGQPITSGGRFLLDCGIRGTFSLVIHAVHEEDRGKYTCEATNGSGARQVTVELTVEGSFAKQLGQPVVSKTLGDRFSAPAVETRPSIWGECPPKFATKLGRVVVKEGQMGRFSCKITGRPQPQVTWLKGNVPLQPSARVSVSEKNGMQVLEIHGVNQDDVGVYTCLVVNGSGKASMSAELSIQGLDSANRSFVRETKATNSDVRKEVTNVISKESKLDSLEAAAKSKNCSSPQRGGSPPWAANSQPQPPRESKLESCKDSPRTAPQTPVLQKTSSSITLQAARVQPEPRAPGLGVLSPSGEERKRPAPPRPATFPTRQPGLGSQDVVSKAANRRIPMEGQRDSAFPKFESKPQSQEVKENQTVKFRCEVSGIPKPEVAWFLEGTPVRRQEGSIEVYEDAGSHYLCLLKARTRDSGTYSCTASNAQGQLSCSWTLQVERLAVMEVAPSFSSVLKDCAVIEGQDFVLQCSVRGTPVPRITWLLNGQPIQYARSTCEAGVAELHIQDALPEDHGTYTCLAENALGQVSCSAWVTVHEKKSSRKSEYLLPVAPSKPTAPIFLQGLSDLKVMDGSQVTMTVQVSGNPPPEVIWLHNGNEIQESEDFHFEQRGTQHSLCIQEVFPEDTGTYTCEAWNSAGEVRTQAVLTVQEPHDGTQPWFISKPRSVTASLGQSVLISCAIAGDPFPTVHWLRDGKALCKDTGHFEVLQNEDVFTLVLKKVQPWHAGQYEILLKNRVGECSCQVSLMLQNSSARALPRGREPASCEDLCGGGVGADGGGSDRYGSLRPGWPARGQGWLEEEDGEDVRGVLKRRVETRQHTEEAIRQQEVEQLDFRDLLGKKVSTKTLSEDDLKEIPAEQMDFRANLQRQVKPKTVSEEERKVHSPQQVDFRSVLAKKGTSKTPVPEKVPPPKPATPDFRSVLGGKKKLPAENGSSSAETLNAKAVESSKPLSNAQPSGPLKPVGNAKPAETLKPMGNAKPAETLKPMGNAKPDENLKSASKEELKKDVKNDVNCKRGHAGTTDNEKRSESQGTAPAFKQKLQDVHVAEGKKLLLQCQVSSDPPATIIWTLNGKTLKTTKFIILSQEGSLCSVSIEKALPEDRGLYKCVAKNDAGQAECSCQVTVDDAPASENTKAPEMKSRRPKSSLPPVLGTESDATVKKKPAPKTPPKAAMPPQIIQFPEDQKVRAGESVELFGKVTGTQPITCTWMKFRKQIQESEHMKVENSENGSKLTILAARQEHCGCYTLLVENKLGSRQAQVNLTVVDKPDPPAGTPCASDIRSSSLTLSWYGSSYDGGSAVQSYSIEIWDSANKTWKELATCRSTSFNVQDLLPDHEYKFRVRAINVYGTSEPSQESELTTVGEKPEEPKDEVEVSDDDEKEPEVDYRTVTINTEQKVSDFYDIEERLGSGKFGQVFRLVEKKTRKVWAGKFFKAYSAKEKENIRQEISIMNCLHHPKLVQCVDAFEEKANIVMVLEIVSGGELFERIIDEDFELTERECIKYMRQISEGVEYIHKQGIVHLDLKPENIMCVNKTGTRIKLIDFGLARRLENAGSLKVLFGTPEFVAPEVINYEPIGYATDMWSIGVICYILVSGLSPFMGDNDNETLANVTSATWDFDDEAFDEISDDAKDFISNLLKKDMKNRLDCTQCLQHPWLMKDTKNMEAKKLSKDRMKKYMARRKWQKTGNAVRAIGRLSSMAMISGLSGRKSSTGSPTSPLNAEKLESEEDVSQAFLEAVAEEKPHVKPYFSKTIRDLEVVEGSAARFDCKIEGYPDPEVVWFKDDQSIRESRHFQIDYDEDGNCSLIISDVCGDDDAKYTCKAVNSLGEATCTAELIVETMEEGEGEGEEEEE

In test [1], `CN(C)C/C=C/C(=O)Nc1ccc(C(=O)N2CCCC(Nc3ncc(Cl)c(-c4c[nH]c5ccccc45)n3)C2)cc1` (stereo not given) displayed a % of control of 78%.
Turning to `Cc1cc([C@@H](C)Nc2ccccc2C(=O)O)c2nc(N3CCOCC3)cc(=O)n2c1` [AZD-6482], in test [2], the % of control was 71%.
With `Cc1cc(F)c(C(=O)Nc2cccc(-c3nncn3C(C)C)n2)cc1-n1cnc(C2CC2)c1`, in test [3], the % of control was 86%.
`CCC(=O)N1CCN(c2ccc(-n3c(=O)ccc4cnc5ccc(-c6cnc7ccccc7c6)cc5c43)cc2C(F)(F)F)CC1`: the results for the % of control in test [4] and in test [5] were 100% and 99%, respectively.

For the origin of these results see ChEMBL document CHEMBL5465560, “Selectivity Literature for EUbOPEN Chemogenomic Library” (2024).
